pIC50: −log10 of the molar value.
Experiments:
fibroblasts = experiment: Alamar blue staining of fibroblasts; type: cell-based; details: Fibroblast
Description: (§1) The hyaluronan synthase activity (Prehm, P. and Schumacher, U., Biochem. Pharmacol. 2004, 68, 1401-1410), the cytotoxicity of the drugs (O'Brien, J. et al., Eur. J. Biochem. 2000, 267, 5421-5426), proteoglycan synthesis rate, hyaluronan (Prehm, P. J. Rheumatol., 2005, 32, 690-696) and proteoglycan (Bjornsson, S. Anal. Biochem. 1993, 210, 282-291) were determined as described. The effect of the prenylflavonoids on the MRP5 export rate was measured with fluorescein diacetate as described (Schulz, T., Schumacher, U., and Prehm, P., J Biol. Chem., 2007, 282, 20999-21004). The determination of the IC50 values on the phosphodiesterase 5 was performed according to the instructions of BPS Bioscience. The culture of bovine chondrocytes in alginate beads and of explants of bovine cartilage was described previously (Deiters, B. and Prehm, P. Arthritis Res. Ther., 2008, 10, R8; Prehm, P. J. Rheumatol. 2005, 32, 690-696). Osteoarthritic reactions were induced in chondrocytes growing in alginate beads by incubation with medium containing 10 ng/ml of II-17 for 6 days, and in cartilage explants with 10 ng/ml of II-17 and 5 ng/ml of II-1α. The supernatants were withdrawn and stored at −20° C. for later analysis. The explants were weighed and extracted with 1 ml of 4 M guanidinium-HCl for 72 hours at 4° C. The proteoglycan concentrations were determined in the extracts.

[1] = tested on: hyaluronan export from chondrosarcoma cells; experiment: Inhibition of hyaluronan export / production in chondrosarcoma cells; type: cell-based
Description: as §1
Chondrosarcoma cells were plated on a 96 well microtiter plate and in the presence of increasing flavonoid concentrations. After 2 days the concentration of hyaluronan was determined in the culture supernatant.

bovine cartilage slices = experiment: Proteoglycan shedding from bovine cartilage slices; type: cell-based; details: Interleukin induced, one week of incubation; compared to unmodified xanthohumol
Description: Hyaluronan overproduction causes massive shedding of proteoglycans from cartilage. Bovine cartilage slices were cultivated in organ culture and osteoarthritic reactions were induced by addition on Interleukin and increasing concentrations of xanthohumol-betaine. The amounts of proteoglycan were determined in the cartilage slices and in the medium after one week of incubation.

Str/ort mice [2] = experiment: Health evaluation of treated Str/ort mice; type: in vivo, mouse; details: 50 mg/kg intraperitoneally, 18 weeks, vs vehicle
Description: (§2) At 10-13 weeks of age, 21 male Str/ort mice (n=7/group) were assigned randomly to vehicle, hylin-betaine and xantho-betaine groups and were treated intraperitoneally 18 weeks with either vehicle (5% DMSO in 95% peanut oil), 50 mg/kg compound of Example 1 (“hylin-betaine”) in 5% DMSO and 95% peanut oil or 50 mg/kg compound of Example 2 (“xantho-betaine”) in 5% DMSO and 95% peanut oil.
To assess the health status after hylin-betaine and xantho-betaine treatment, mice were monitored for their health status. The monitoring criteria were body surface temperature, body weight, gait, coat condition, skin tenting for dehydration, hunching, activity, breathing rate and general body condition. Mice were scored blind for each one of these criteria from 1-5 except for body weight and temperature.

Str/ort mice [3] = experiment: Gait analysis (treadmill, Digigait) in Str/ort mice; type: in vivo, mouse
Description: as §2
Gait was monitored using a treadmill-based video system (DigigaitTM system) in three treatment groups of mice at three time point, week 1, week 9 and week 18 of treatment. The number of mice was 7, 7 and 5 in groups 1, 2 and 3, respectively.
[…] gait descriptors were used for the analyses. Thirty-four descriptors were obtained directly from the software of the system in the 4 limbs (LF: left front; RF: right front; LR: left rear; RR: right rear). All the others (143) were calculated indexes from gait measurements including swing, stance, brake, propel and stride times, stride length, frequency and coefficient of variation, paw area and paw angle and the variability of those two traits, the coefficient of variation of swing duration mid line distance, and minimum and maximum dAdT. The ratios of times were calculated in the 4 limbs: Brake, Propel, and Swing times relative to Stance and Stride times, Stance/Swing and Stance/Stride. In addition, the following additional indexes were considered:
In order to investigate whether there were differences among groups for each descriptor at the three experimental dates, an ANOVA was performed using data corresponding to each descriptor and date. Bonferroni correction was applied to counteract the problem of multiple comparisons.
A t-test analysis was also performed comparing only two groups at a time. In order to assess whether differences between both groups could be due to differences in gait change regarding the initial condition (at 2014/12/23), two sets of analyses were performed for data at 2015/02/18 and 2015/04/14, respectively by using Logistic Regression Analysis. The model included two independent variables: the initial value for each descriptor and the difference between the corresponding value at 2015/02/18 (or 2015/04/14) and the initial value. Bonferroni correction was also applied.

Str/ort mice [4] = experiment: Micro-CT of tibial trabecular and cortical bone in Str/ort mice; type: in vivo, mouse; details: 10-90% of total tibial length, vs vehicle
[5] = 50 mg/kg intraperitoneally, 18 weeks

COc1cc(O)c(CC=C(C)C)c(O)c1C(=O)/C=C/c1ccc(OC(=O)C[N+](C)(C)C)cc1.[Cl-] [Xantho-betaine, (E)-2-(4-(3-(2,4-dihydroxy-6-methoxy-3-(3-methylbut-2-en-1-yl)phenyl)-3-oxoprop-1-en-1-yl)phenoxy)-N,N,N-trimethyl-2-oxoethanaminium chloride]
pIC50 (fibroblasts): 4.10 | pIC50 [1]: 4.74 | inhibition of hyaluronan export ([1]; culture supernatant after 2 days, comparison with parent compound, particularly below 3 μM): slightly less effective than xanthohumol | reduction of shedding of proteoglycan into the medium (bovine cartilage slices): more effective | health status: weight, hunching, gait, activity, vocalisation and respiration scores, coat condition (Str/ort mice [2]): does not alter | mice that refused to run (drop-out) during the gait studies (Str/ort mice [3]; [5]): 2 mice | percentage of drop-out regarding the total number of runs (Str/ort mice [3]; [5]): 13.3% | distribution of gait data (runs) by treatment group (Str/ort mice [3]; 2014 Dec. 23): 4 | distribution of gait data (runs) by treatment group (Str/ort mice [3]; 2015 Apr. 14): 5 | distribution of gait data (runs) by treatment group (Str/ort mice [3]; 2015 Feb. 18): 4 | effect on all gait descriptors (Str/ort mice [3]; any time point, compared with vehicle group): no significant effect | effect on cortical bone (overall) (Str/ort mice [4]): significantly alter
